This is an account of results in patent publication US10674699B2, “Endophyte enhanced seedlings with increased pest tolerance” (priority 2006, dated 2020).

Data set [1] relates to Zeiraphera canadensis larvae (spruce budmoth). The data set is described as follows: Dietary rugulosin in artificial diet, wild collected spruce budmoth larvae. The data set is classed as in vivo. As for the experimental part:
Zeiraphera canadensis larvae (spruce budmoth) were collected from the wild near Sussex in mid June. They were immediately put in test vials and tested at rugulosin concentrations of 10, 50, 100 and 150 μM (75 per concentration). After seven days, surviving larvae were frozen and measured.

The nature of data set [2]: Rugulosin analysis of needles by HPLC (toxin in planta). Also noted: species or system Picea glauca. Conditions: field trees analyzed in 2005, limit of detection 150 ng/g. As for the experimental part:
Rugulosin of purity>95% was used for standards. The presence of rugulosin was then to be determined in a sub-sample of 113 randomly-selected trees of the 330 trees determined to be endophyte positive by antibody. A 100 mg sample of freeze-dried needles was ground to a fine power as describe above and extracted with 10 mL of ice cold petroleum ether by stirring for 45 min under conditions of low light. The flask was kept on ice during the extracting and was covered with aluminium foil to prevent degradation by light. The suspension was filtered by suction and discarded. The needles were returned to the flask and extracted with 10 mL of chloroform for 45 min as above for petroleum ether. The new suspension was then filtered by suction and retained while the needles were discarded. The chloroform extract was washed with 10 mL of 5% NaHCO3 in a separatory funnel. […]
The dried extracts were re-dissolved in 50 μL of acetonitrile, 10 μL was removed and injected into an 1100 series Agilent Technologies HPLC-DAD, using a Synergi Max RP 80A, 250×4.6 column (Phenomonex) and a gradient method adapted from Frisvad (1987). […] Samples were analysed at 389 nm, the maximum UVNIS absorption for rugulosin and peak identity was confirmed by full spectrum data from the diode array detector. The limit of quantification was 150 ng/g freeze dried powdered material; recoveries from spiked needles averaged 75%. […]

Data set [3] relates to Choristoneura fumiferana (spruce budworm) larvae. Conditions: Calhoun et al. 1992; cited from earlier work.
For data set [4], the system named is fruit flies (Drosophila melanogaster). Conditions: Dobias et al. 1980; cited from earlier work.
A further data set concerns mice. The settings on record: ip in mice; Ueno et al. 1971; cited from earlier work.

Each structure is given as a SMILES string.

For `Cc1cc(O)c2c(c1)C(=O)[C@]13C(=C2O)C(=O)[C@@H]2[C@H](O)[C@H]1[C@@H]1[C@@H](O)[C@H]3C(=O)C3=C(O)c4c(O)cc(C)cc4C(=O)[C@]312` [rugulosin], the “larval weights, controls vs treatment groups by ANOVA (LSD, Tukey)” value in data set [1] (10, 50, 100 and 150 μM rugulosin, seven days) is given as “not significantly different”. In addition, in data set [1] (diet), the “effect of rugulosin on wild collected larvae relative to the other insect species” value is “same order of magnitude”. For the same compound, the “dietary concentration reducing body weight and/or affecting instar development” value in data set [1] (in vitro, diet) was ~50 µM. In data set [2], the “individual branch samples positive for rugulosin or its degradation product” value stood at 89%. The “toxicity to C. fumiferana larvae in an artificial diet” value in data set [3] is given as “toxic”. Moreover, in data set [4], the “dietary toxicity of rugulosin” value is ~50 µM and the “toxicity to Drosophila melanogaster” value is listed as “toxic”. Also, the LD50 in the data set with mice was 55 mg kg^−1 BW.
